Where a chain is given by its changes, count along the chain named.
Assays:
[1] = target: T1, human α1aAR SNP V311I (Homo sapiens, UniProt P35348, V311I); experiment: Competition binding vs [125I]HEAT, SNP V311I; conditions: high expressing clone
T1 construct: expressed in transfected cells
T1 sequence (P35348 1-466 V311I): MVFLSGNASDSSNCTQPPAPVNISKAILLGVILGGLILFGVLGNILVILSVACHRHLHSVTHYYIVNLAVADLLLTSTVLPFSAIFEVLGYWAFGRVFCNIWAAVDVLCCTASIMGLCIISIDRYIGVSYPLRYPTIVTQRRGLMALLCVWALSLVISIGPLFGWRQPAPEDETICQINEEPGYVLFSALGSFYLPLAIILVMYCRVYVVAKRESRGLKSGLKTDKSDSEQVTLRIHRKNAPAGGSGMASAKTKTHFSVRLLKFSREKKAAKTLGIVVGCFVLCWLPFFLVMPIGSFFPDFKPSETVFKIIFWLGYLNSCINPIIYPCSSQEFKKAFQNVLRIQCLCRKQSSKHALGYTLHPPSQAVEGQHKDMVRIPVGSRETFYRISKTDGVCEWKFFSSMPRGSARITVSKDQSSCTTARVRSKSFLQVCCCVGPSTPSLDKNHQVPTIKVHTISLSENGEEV

[2] = target: T2, human α1aAR SNP G247R (Homo sapiens, UniProt P35348, G247R); experiment: NE-stimulated inositol phosphate (IP) production, SNP G247R; format: cell-based; conditions: low-expression stable clones
T2 construct: expressed in transfected cells
T2 sequence (P35348 1-466 G247R): T1 sequence (P35348 1-466 V311I) with G247R, I311V

[3] = target: T1, human α1aAR SNP V311I; experiment: NE-stimulated inositol phosphate (IP) production, SNP V311I; format: cell-based
[4] = target: T3, human α1aAR SNP I200S (Homo sapiens, UniProt P35348, I200S); experiment: Competition binding vs [125I]HEAT, SNP I200S; conditions: high expressing clone
T3 construct: expressed in transfected cells; host or cells: rat-1 fibroblasts (membranes)
T3 sequence (P35348 1-466 I200S): T1 sequence (P35348 1-466 V311I) with I200S, I311V

COc1ccccc1N1CCN(CCCNc2c(C)c(=O)n(C)c(=O)n2C)CC1 [5-methylurapidil]
higher affinity vs WT [1]: 3 fold

NC[C@H](O)c1ccc(O)c(O)c1 [NE, (−)-norepinephrine]
maximum IP production (maximum activity) vs WT [2]: significantly higher maximum activity | decrease in potency of NE-stimulated IP formation compared with WT ([3]; high-expression stable clone): 2.4 fold | EC50 for NE vs WT ([3]; low-expression stable clone): significantly increased EC50 | EC50 for NE vs WT ([3]; transiently transfected rat-1 fibroblasts): significantly increased EC50 | Ki increase vs WT (decrease in receptor affinity) [1]: ~3 fold

CNC[C@H](O)c1cccc(O)c1 [phenylephrine]
Ki increase vs WT (decrease in receptor affinity) [1]: ~3 fold

Cc1ccc(N(CC2=NCCN2)c2cccc(O)c2)cc1 [phentolamine]
Ki increase vs WT (decreased binding affinity) [4]: ~3 fold

— US20040265846A1, “Adrenergic receptors” (DUKE UNIVERSITY, priority 2002, published 2004)
